# Measured values taken from patent publication US20240158446A1, “CYCLIC COMPOUND HAVING SELECTIVE INHIBITORY ACTION ON KRAS OVER HRAS AND NRAS” (CHUGAI SEIYAKU KABUSHIKI KAISHA, priority 2021, published 2024).
# Read-outs that look alike come from different tables or passages of the source.
# Experiments:
# [1] = molecular target: GDP-bound NRAS wild-type protein (Homo sapiens, UniProt P01111); experiment: Binding to NRAS by surface plasmon resonance (SPR), Single Cycle Kinetics; settings: for NRAS/KRAS (ratio of KD value for NRAS to KD value for KRAS): GDP-bound NRAS wild-type protein vs GDP-bound KRAS wild-type protein; for NRAS/KRAS (ratio of KD value with respect to GDP-bound NRAS wild-type protein to KD value with respect to KRAS): SPR KD ratio NRAS/KRAS, class symbols
# [2] = molecular target: GDP-bound HRAS wild-type protein (Homo sapiens, UniProt P01112); experiment: Binding to HRAS by surface plasmon resonance (SPR), Single Cycle Kinetics; settings: for HRAS/KRAS (ratio of KD value for HRAS to KD value for KRAS): GDP-bound HRAS wild-type protein vs GDP-bound KRAS wild-type protein; for HRAS/KRAS (ratio of KD value with respect to GDP-bound HRAS wild-type protein to KD value with respect to KRAS): SPR KD ratio HRAS/KRAS, class symbols
# [3] = test system: human lung cancer strain NCI-H441;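 note: cell proliferation inhibition after four days measured by CellTiter-Glo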
# [4] = molecular target: GDP-bound KRAS wild-type protein (Homo sapiens, UniProt P01116); experiment: Binding to KRAS by surface plasmon resonance (SPR), Single Cycle Kinetics
# [5] = SPR, Single Cycle Kinetics, 1:1 binding model, GDP-bound KRAS wild-type protein, read-out: KRAS KD
# [6] = SPR, Single Cycle Kinetics, GDP-bound KRAS wild-type protein, read-out: KRAS KD
# [7] = SPR Single Cycle Kinetics, GDP-bound KRAS wild-type protein, 1:1 binding model, read-out: KRAS KD
# GDP-bound NRAS wild-type protein, sequence (P01111 whole entry): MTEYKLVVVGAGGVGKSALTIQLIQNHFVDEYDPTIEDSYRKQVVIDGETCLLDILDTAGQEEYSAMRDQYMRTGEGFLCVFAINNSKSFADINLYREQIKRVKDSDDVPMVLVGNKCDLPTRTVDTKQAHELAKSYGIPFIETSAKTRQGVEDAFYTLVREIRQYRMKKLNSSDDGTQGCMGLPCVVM
# GDP-bound KRAS wild-type protein, sequence (P01116 whole entry): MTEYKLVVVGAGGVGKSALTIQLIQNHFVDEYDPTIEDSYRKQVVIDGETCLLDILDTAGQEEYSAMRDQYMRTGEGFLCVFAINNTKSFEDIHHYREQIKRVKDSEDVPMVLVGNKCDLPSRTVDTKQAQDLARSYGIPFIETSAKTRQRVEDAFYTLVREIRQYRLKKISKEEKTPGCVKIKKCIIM
# GDP-bound HRAS wild-type protein, sequence (P01112 whole entry): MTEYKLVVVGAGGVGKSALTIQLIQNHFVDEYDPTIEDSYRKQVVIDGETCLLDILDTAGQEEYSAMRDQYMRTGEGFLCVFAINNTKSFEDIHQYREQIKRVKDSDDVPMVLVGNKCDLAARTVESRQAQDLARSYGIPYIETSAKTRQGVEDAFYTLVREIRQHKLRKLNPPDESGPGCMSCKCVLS
Compound,IC50 [3] [nM],"Kd [4, 5] [nM]","Kd [4, 6] [nM]","NRAS/KRAS (ratio of KD value for NRAS to KD value for KRAS) ([1]; SPR, KD ratio class)","HRAS/KRAS (ratio of KD value for HRAS to KD value for KRAS) ([2]; SPR, KD ratio class)",NRAS/KRAS (ratio of KD value for NRAS to KD value for KRAS) ([1]; SPR),HRAS/KRAS (ratio of KD value for HRAS to KD value for KRAS) ([2]; SPR),other results
"CC[C@H](C)[C@@H]1NC(=O)[C@H](CC)N(C)C(=O)C[C@@H](C(=O)N(C)C)N(C)C(=O)[C@H](C2CCCC2)N(C)C(=O)C2(CCC2)NC(=O)[C@@H]2CC(F)(F)CN2C(=O)[C@H](CCc2cc(F)c(C(F)(F)F)c(F)c2)NC(=O)CN(C)C(=O)[C@H](CC2CCC(F)(F)CC2)N2CC/C=C\C[C@@H](C2=O)N(C)C(=O)CN(C)C1=O [PP1448, (2S,8S,14S,20S,23S,27S,30S,36S,38Z)-20-cyclopentyl-2-[(4,4-difluorocyclohexyl)methyl]-8-[2-[3,5-difluoro-4-(trifluoromethyl)phenyl]ethyl]-27-ethyl-12,12-difluoro-N,N,4,19,22,26,32,35-octamethyl-30-[(1S)-1-methylpropyl]-3,6,9,15,18,21,25,28,31,34,42-undecaoxo-spiro[1,4,7,10,16,19,22,26,29,32,35-undecazatricyclo[34.5.1.0^10,14]dotetracont-38-ene-17,1′-cyclobutane]-23-carboxamide]",8.3,0.059,,A (a compound having 10 or more and less than 20 is denoted as A),A (a compound having 10 or more and less than 20 is denoted as A),,,
CCO[C@@H]1C[C@H]2C(=O)NC3(CCCC3)C(=O)N(C)[C@@H](C3CCCC3)C(=O)N(C)[C@H](C(=O)N3CCOCC3)CC(=O)N(C)[C@@H](CC)C(=O)N[C@@H]([C@@H](C)CC)C(=O)N(C)CC(=O)N(C)[C@H]3C[C@@H](C)[C@@H](C)CN(C3=O)[C@@H](Cc3ccc(C(F)(F)F)cc3)C(=O)N(C)CC(=O)N[C@@H](CCc3cc(F)c(C(F)(F)F)c(F)c3)C(=O)N2C1 [PP1353],3.7,0.1,,A (a compound having 10 or more and less than 20 is denoted as A),B (a compound having 3 or more and less than 10 is denoted as B),,,
"CCC[C@H]1C(=O)N[C@@H]([C@@H](C)CC)C(=O)N2CCC[C@H]2C(=O)N(C)[C@H]2C/C=C\CCN(C2=O)[C@@H](Cc2ccc(C)cc2)C(=O)N(C)CC(=O)N[C@@H](CCc2ccc(C(F)(F)F)c(OC)c2)C(=O)N2C[C@H](OCC)C[C@H]2C(=O)N(C)C2(CCC2)C(=O)N(C)[C@@H](C2CCCC2)C(=O)N(C)[C@H](C(=O)N2CCCCC2)CC(=O)N1C [PP3100, (1S,4S,10S,13S,17S,20S,26S,28R,32S,38S,42Z)-20-cyclopentyl-28-ethoxy-32-[2-[3-methoxy-4-(trifluoromethyl)phenyl]ethyl]-2,14,18,21,24,36-hexamethyl-10-[(1S)-1-methylpropyl]-17-(piperidine-1-carbonyl)-13-propyl-38-(p-tolylmethyl)spiro[2,8,11,14,18,21,24,30,33,36,39-undecazatetracyclo[37.5.1.0^4,8.0^26,30]pentatetracont-42-ene-23,1′-cyclobutane]-3,9,12,15,19,22,25,31,34,37,45-undecone]",,,0.29,,,A (a compound having 10 or more and less than 20 is denoted as A),B (a compound having 3 or more and less than 10 is denoted as B),"ratio of the KD value with respect to GDP-bound NRAS wild-type protein to the KD value with respect to KRAS ([1]; SPR, KD(NRAS)/KD(KRAS)): A (a compound having 10 or more and less than 20 is denoted as A); ratio of the KD value with respect to GDP-bound HRAS wild-type protein to the KD value with respect to KRAS ([2]; SPR, KD(HRAS)/KD(KRAS)): B (a compound having 3 or more and less than 10 is denoted as B); IC50 ([3]; read-out: NCI-H441 cell proliferation inhibitory activity, 50% proliferation inhibitory concentration (IC50 value), NCI-H441, four days, CellTiter-Glo): 15 nM; Kd ([4]; SPR, Single Cycle Kinetics, 1:1 binding model, read-out: KD value with respect to GDP-bound KRAS wild-type protein): 0.29 nM"
CCO[C@@H]1C[C@H]2C(=O)NC3(CCCC3)C(=O)N(C)[C@@H](C3CCCC3)C(=O)N(C)[C@H](C(=O)N3CCOCC3)CC(=O)N(C)[C@@H](COC)C(=O)N[C@@H]([C@@H](C)CC)C(=O)N3CC[C@H]3C(=O)N(C)[C@H]3CCCCCN(C3=O)[C@@H](Cc3ccc(C(F)(F)F)cc3)C(=O)N(C)CC(=O)N[C@@H](CCc3cc(F)c(C(F)(F)F)c(F)c3)C(=O)N2C1 [PP0867],206,,1.2,,,B (a compound having 3 or more and less than 10 is denoted as B),B (a compound having 3 or more and less than 10 is denoted as B),
CCO[C@@H]1C[C@H]2C(=O)NC3(CCC3)C(=O)N(C)[C@@H](C3CCCC3)C(=O)N(C)[C@H](C(=O)N3CCOCC3)CC(=O)N(C)[C@@H](CC(C)C)C(=O)N[C@@H]([C@@H](C)CC)C(=O)N3CC[C@H]3C(=O)N(C)[C@H]3CC[C@@H](C)CN(C3=O)[C@@H](Cc3ccc(C(F)(F)F)cc3)C(=O)N(C)CC(=O)N[C@@H](CCc3ccc(C(F)(F)F)c(Cl)c3)C(=O)N2C1 [PP1379],10.3,0.29,,A (a compound having 10 or more and less than 20 is denoted as A),B (a compound having 3 or more and less than 10 is denoted as B),,,
"CCO[C@@H]1C[C@H]2C(=O)NC3(CCC3)C(=O)N(C)[C@@H](C3CCCC3)C(=O)N(C)[C@H](C(=O)N(C)C)CC(=O)N(C)[C@@H](CC3CCCC3)C(=O)N[C@@H]([C@@H](C)CC)C(=O)N(C)CC(=O)N(C)[C@H]3C/C=C\CCN(C3=O)[C@@H](Cc3ccc(C)cc3)C(=O)N(C)CC(=O)N[C@@H](CCc3cc(F)c(C(F)(F)F)c(F)c3)C(=O)N2C1 [PP1411, (2S,8S,12R,14S,20S,23S,27S,30S,36S,38Z)-20-cyclopentyl-27-(cyclopentylmethyl)-8-[2-[3,5-difluoro-4-(trifluoromethyl)phenyl]ethyl]-12-ethoxy-N,N,4,19,22,26,32,35-octamethyl-30-[(1S)-1-methylpropyl]-3,6,9,15,18,21,25,28,31,34,42-undecaoxo-2-(p-tolylmethyl)spiro[1,4,7,10,16,19,22,26,29,32,35-undecazatricyclo[34.5.1.0^10,14]dotetracont-38-ene-17,1′-cyclobutane]-23-carboxamide]",6,0.08,,A (a compound having 10 or more and less than 20 is denoted as A),B (a compound having 3 or more and less than 10 is denoted as B),,,
CCO[C@@H]1C[C@H]2C(=O)NC3(CCC3)C(=O)N(C)[C@@H](C3CCCC3)C(=O)N(C)[C@H](C(=O)N3CCOCC3)CC(=O)N(C)[C@@H](CC)C(=O)N[C@@H]([C@@H](C)CC)C(=O)N3CC[C@H]3C(=O)N(C)[C@H]3C[C@@H](C)[C@@H](C)CN(C3=O)[C@@H](Cc3ccc(C(F)(F)F)cc3)C(=O)N(C)CC(=O)N[C@@H](CCc3cc(F)c(C(F)(F)F)c(F)c3)C(=O)N2C1 [PP1351],12.8,0.13,,A (a compound having 10 or more and less than 20 is denoted as A),B (a compound having 3 or more and less than 10 is denoted as B),,,

# The next lines start with results.
IC50 [3] [nM],"Kd [4, 5] [nM]","Kd [4, 6] [nM]",Compound,"NRAS/KRAS (ratio of KD value for NRAS to KD value for KRAS) ([1]; SPR, KD ratio class)","HRAS/KRAS (ratio of KD value for HRAS to KD value for KRAS) ([2]; SPR, KD ratio class)",NRAS/KRAS (ratio of KD value for NRAS to KD value for KRAS) ([1]; SPR),HRAS/KRAS (ratio of KD value for HRAS to KD value for KRAS) ([2]; SPR),other results
2.1,,0.075,CCCOC[C@H]1C(=O)N[C@@H]([C@@H](C)CC)C(=O)N(C2CC2)CC(=O)N(C)[C@H]2C/C=C\CCN(C2=O)[C@@H](Cc2ccc(C)cc2)C(=O)N(C)CC(=O)N[C@@H](CCc2ccc(C(F)(F)F)c(OC)c2)C(=O)N2C[C@@H](C)C[C@H]2C(=O)N(C)C2(CCC2)C(=O)N(C)[C@@H](C2CCCC2)C(=O)N(C)[C@H](C(=O)N(C)C)CC(=O)N1C [PP2367],,,A (a compound having 10 or more and less than 20 is denoted as A),B (a compound having 3 or more and less than 10 is denoted as B),
7.7,,,CCO[C@@H]1C[C@H]2C(=O)NC3(CC(C)(C)C3)C(=O)N(C)[C@@H](C(CC)CC)C(=O)N(C)[C@H](C(=O)N(C)C)CC(=O)N(C)[C@H]3CCC/C=C/c4ccc(cc4)C[C@@H](C(=O)N(C)CC(=O)N[C@@H](CCc4cc(F)c(C(F)(F)F)c(F)c4)C(=O)N2C1)N1CC/C=C\C[C@@H](C1=O)N(C)C(=O)CN(C1CC1)C(=O)[C@H]([C@@H](C)CC)NC3=O [PP2955],,,,,"NRAS/KRAS (ratio of KD value with respect to GDP-bound NRAS wild-type protein to KD value with respect to KRAS) [1]: A (a compound having 10 or more and less than 20 is denoted as A); HRAS/KRAS (ratio of KD value with respect to GDP-bound HRAS wild-type protein to KD value with respect to KRAS) [2]: A (a compound having 10 or more and less than 20 is denoted as A); Kd [4, 7]: 0.14 nM"
7.7,,,CCOC[C@H]1C(=O)N[C@@H]([C@@H](C)CC)C(=O)N(C2CC2)CC(=O)N(C)[C@H]2C/C=C\CCN(C2=O)[C@@H](Cc2ccc(C)cc2)C(=O)N(C)CC(=O)N[C@@H](CCc2cc(F)c(C(F)(F)F)c(F)c2)C(=O)N2C[C@H](OCC)C[C@H]2C(=O)NC2(CC(C)(C)C2)C(=O)N(C)[C@@H](CC(C)(C)C)C(=O)N(C)[C@H](C(=O)N(C)C)CC(=O)N1C [PP2720],,,,,"NRAS/KRAS (ratio of KD value with respect to GDP-bound NRAS wild-type protein to KD value with respect to KRAS) [1]: A (a compound having 10 or more and less than 20 is denoted as A); HRAS/KRAS (ratio of KD value with respect to GDP-bound HRAS wild-type protein to KD value with respect to KRAS) [2]: A (a compound having 10 or more and less than 20 is denoted as A); Kd [4, 7]: 0.35 nM"
81.2,,3.3,CCC[C@H]1C(=O)N[C@@H](CC(C)C)C(=O)N(CC)CC(=O)N(C)[C@H]2C/C=C\CCN(C2=O)[C@@H](Cc2ccc(C)cc2)C(=O)N(C)CC(=O)N[C@@H](CCc2ccc(C(F)(F)F)c(OC)c2)C(=O)N2C[C@H](OCC)C[C@H]2C(=O)NC2(CC(C)(C)C2)C(=O)N(C)[C@@H](C2CCCC2)C(=O)N(C)[C@H](C(=O)N(C)C)CC(=O)N1C [PP2518],,,A (a compound having 10 or more and less than 20 is denoted as A),A (a compound having 10 or more and less than 20 is denoted as A),
